Assay results reported in patent US4642341A, “Carbapenem antibiotics” (priority 1985, dated 1987).
Values after ≈ are worked out from the molar mass of the structure shown. Read-outs that look alike come from different tables or passages of the source.

Columns and labels:
S. pneumoniae A-9585 = experiment: Minimum Inhibitory Concentration, tube dilution; type: cell-based; conditions: Streptococcus pneumoniae, A9585, overnight 37° C.; table 6
S. pyogenes A-9604 = experiment: Minimum Inhibitory Concentration, tube dilution; type: cell-based; conditions: Streptococcus pyogenes, A9604, overnight 37° C.; table 6
S. aureus A-9537 = experiment: Minimum Inhibitory Concentration, tube dilution; type: cell-based; conditions: Staphylococcus aureus, table 6, read-out: MIC
[1] = tested on: S. aureus A-9606 (Pen-res.); experiment: Minimum Inhibitory Concentration, tube dilution; type: cell-based; conditions: Staphylococcus aureus, Pen-res; table 6
[2] = tested on: S. aureus A15097 (Meth-res.); experiment: Minimum Inhibitory Concentration, tube dilution; type: cell-based; conditions: Staphylococcus aureus, table 6
S. faecalis A20688 = experiment: Minimum Inhibitory Concentration, tube dilution; type: cell-based; conditions: Enterococcus faecalis, A20688, overnight 37° C.; table 6; read-out: MIC
E. coli A15119 = experiment: Minimum Inhibitory Concentration, tube dilution; type: cell-based; conditions: Escherichia coli, A15119, overnight 37° C.; table 6
E. coli A20341-1 = experiment: Minimum Inhibitory Concentration, tube dilution; type: cell-based; conditions: Escherichia coli, A203411, overnight 37° C.; table 6
P. vulgaris A21559 = experiment: Minimum Inhibitory Concentration, tube dilution; type: cell-based; conditions: Proteus vulgaris, A21559, overnight 37° C.; table 6
P. aeruginosa A-9843A = experiment: Minimum Inhibitory Concentration, tube dilution; type: cell-based; conditions: Pseudomonas aeruginosa, A9843A, overnight 37° C.; table 6; read-out: MIC
H. influenzae A-9833 = experiment: Minimum Inhibitory Concentration, tube dilution; type: cell-based; conditions: Haemophilus influenzae, A9833; overnight 37° C.; table 6; read-out: MIC
H. influenzae A21518 = experiment: Minimum Inhibitory Concentration, tube dilution; type: cell-based; conditions: Haemophilus influenzae, overnight 37° C., table 6
B. fragilis A22862 = experiment: Minimum Inhibitory Concentration, tube dilution; type: cell-based; conditions: Bacteroides fragilis, overnight 37° C., table 6
B. fragilis A22696 = experiment: Minimum Inhibitory Concentration, tube dilution; type: cell-based; conditions: Bacteroides fragilis
P. aeruginosa A20481 = experiment: Protective effect, intramuscular treatment of infected mice (table 7); type: in vivo; conditions: Pseudomonas aeruginosa, A20481, im; i.m. 1 and 3.5 hours post-infection; ~1×10^5 organisms i.p.; read-out: PD50 /treatment
Method: (§1) Drugs were administered i.m. 0 to 2 hours post-infection (A9606) or 1 and 3.5 hours post-infection for the others.

P. mirabilis A9900 = experiment: as above; type: in vivo; conditions: Proteus mirabilis, A9900, im; i.m. 1 and 3.5 hours post-infection; ~1×10^7 organisms i.p.; read-out: PD50 /treatment
Method: as §1

S. aureus A9606 = experiment: as above; type: in vivo; conditions: Staphylococcus aureus, A9606, im; i.m. 0 to 2 hours post-infection; ~1×10^9 organisms i.p.; read-out: PD50 /treatment
Method: as §1

P. aeruginosa A9843A = experiment: animal or person; type: in vivo, mice; conditions: Pseudomonas aeruginosa, in Mus musculus, im, 3.5 h, read-out: PD50 /treatment
Method: as §1

[3] = Half-life in phosphate buffer pH 7.4; type: physicochemical; conditions: phosphate buffer; for half-life: pH 7.4, t1/2 (half-life)
Method: To a solution of p-nitrobenzyl 3-[2-(1-pyridinium)ethylthio)]-6α[1-(R)-hydroxyethyl]-7-oxo-1-azabicyclo(3.2.0)hept-2-ene-carboxylate diphenylphosphate (0.16 g, 0.22 mmol) in wet tetrahydrofuran (10mL) was added ether (10mL), potassium phosphate monobasic-sodium hydroxide buffer pH 7.4 (16 mL, 0.05 M) and 10% palladium on charcoal (0.16 g). The resulting mixture was hydrogenated under 40 psi for 1 h at 25° C. The two phases were separated and the organic phase was extracted with water (2×3 mL). The aqeuous solutions were combined, washed with ether (2×10 ml) and poured on top of a column (1.5×6.2 cm) pf μ-bondapak C-18 after the traces of organic solvents have been removed under vacuum. Elution of the column with water gave after lyophylization of the appropriate fractions a yellowish powder 0.062 g (84%), ir (KBr) .nu.max : 3700-3000 (OH), 1755 (C--O of β-lactam), 1630 (pyridinium), 1590 cm^-1 (carboxylate), ^1 Hmr (D2 O): 1.22 (3H, d, J=6.4 Hz, CH3 CHOH), 2.92 (d, J=9.1 Hz, H-4), 2.97 (d, J=9.1 Hz, H-4), 3.20 (dd, J=2.5 Hz, J=6.1 Hz, H-6), 3.44 (t, J=6.0 Hz, CH2 S), 3.93 (dd, J=9.1 Hz, J=2.5 Hz, H-5), 4.82 (t, J=6.0 Hz, CH2 N^+), 8.04 (m, Hm of pyridinium), 8.5 (m, Hp of pyridinium), 8.82 (dd, J=3.2. Hz, J=1.1 Hz, Ho of pyridinium), uv (H2 O) λ max : 259 (ε5800), 296 (ε7030) mμ, .tau.1/2 =13.5 h (measured at a concentration of 10^-4 M in phosphate buffer pH 7.4 at 36.8° C.).

K. pneumoniae A20468 = experiment: Minimum Inhibitory Concentration, tube dilution; type: cell-based; conditions: Klebsiella pneumoniae
P. mirabilis A-9900 = experiment: Minimum Inhibitory Concentration, tube dilution; type: cell-based; conditions: Proteus mirabilis, A9900, overnight 37° C.; table 6
P. rettgeri A22424 = experiment: Minimum Inhibitory Concentration, tube dilution; type: cell-based; conditions: Providencia rettgeri, overnight 37° C., table 6, read-out: MIC
E. cloacae A-9656 = experiment: Minimum Inhibitory Concentration, tube dilution; type: cell-based; conditions: Enterobacter cloacae, A9656; overnight 37° C.; table 6
P. aeruginosa A21213 = experiment: Minimum Inhibitory Concentration, tube dilution; type: cell-based; conditions: Pseudomonas aeruginosa
E. cloacae A9659 = experiment: Minimum Inhibitory Concentration, tube dilution; type: cell-based; conditions: Enterobacter cloacae, A9659, overnight 37° C.; table 6; read-out: MIC
M. morganii A15153 = experiment: Minimum Inhibitory Concentration, tube dilution; type: cell-based; conditions: Morganella morganii, A15153, overnight 37° C.; table 6
[4] = Pharmacokinetic parameters in the mouse after intramuscular dose; type: in vivo, mice; conditions: im, 20 mg/kg; for AUC / Cmax / half-life: blood; for half-life: read-out: T1/2 (blood); for dose excreted: urine, read-out: Urine Recovery
Source text: Also shown is the urinary recovery in the mice.
Compounds were solubilized in 0.1 M phosphate buffer pH 7.

S. marcescens A20019 = experiment: Minimum Inhibitory Concentration, tube dilution; type: cell-based; conditions: Serratia marcescens, A20019, overnight 37° C.; table 6
[5] = overnight 37° C., table 6, read-out: MIC

| SMILES | MIC (S. pneumoniae A-9585) [µg/mL] | MIC (S. pyogenes A-9604) [µg/mL] | MIC (S. aureus A-9537; A9537, 50% serum) [µg/mL] | MIC (S. aureus A-9537; A9537, overnight 37° C.) [µg/mL] | MIC [1] [µg/mL] | MIC [2] [µg/mL] | MIC (S. faecalis A20688) [µg/mL] | MIC (E. coli A15119) [µg/mL] | MIC (E. coli A20341-1) [µg/mL] | MIC (P. vulgaris A21559) [µg/mL] | MIC (P. aeruginosa A-9843A) [µg/mL] | MIC (H. influenzae A-9833) [µg/mL] | MIC (H. influenzae A21518) [µg/mL] | MIC (B. fragilis A22862) [µg/mL] | MIC (B. fragilis A22696; [5]) [µg/mL] | ED50 (P. aeruginosa A20481) [mg/kg] | ED50 (P. mirabilis A9900) [mg/kg] | ED50 (S. aureus A9606) [mg/kg] | ED50 (P. aeruginosa A9843A) [mg/kg] | half-life [3] [h] | further results |
| --- | --- | --- | --- | --- | --- | --- | --- | --- | --- | --- | --- | --- | --- | --- | --- | --- | --- | --- | --- | --- | --- |
| C[C@@H](O)[C@H]1C(=O)N2C(C(=O)[O-])=C(SCC[n+]3cccc(CO)c3)C[C@H]12 [Example 5, (5R,6S)-3-[[2-(3-hydroxymethylpyridino)ethyl]thio]-6-[(R)-1-hydroxyethyl]-7-oxo-1-azabicyclo[3.2.0]hept-2-ene-2-carboxylate] | 0.03 (≈ 0.0823 µM) | 0.03 (≈ 0.0823 µM) | 0.06 (≈ 0.165 µM) | 0.03 (≈ 0.0823 µM) | 0.03 (≈ 0.0823 µM) | > 63 | 0.5 (≈ 1.37 µM) | 0.06 (≈ 0.165 µM) | 0.06 (≈ 0.165 µM) | 0.06 (≈ 0.165 µM) | 2 (≈ 5.49 µM) | > 32 | > 32 | 0.06 (≈ 0.165 µM) | 0.5 (≈ 1.37 µM) | 0.8 | 22 | 0.5 | 0.9 | 14 |  |
| Cc1cc(C)c[n+](CCSC2=C(C(=O)[O-])N3C(=O)[C@H]([C@@H](C)O)[C@H]3C2)c1 [Example 4] | 0.03 (≈ 0.0828 µM) | 0.03 (≈ 0.0828 µM) | 0.03 (≈ 0.0828 µM) | 0.03 (≈ 0.0828 µM) | 0.5 (≈ 1.38 µM) | > 63 | 0.5 (≈ 1.38 µM) | 0.06 (≈ 0.166 µM) | 0.06 (≈ 0.166 µM) | 0.03 (≈ 0.0828 µM) | 32 (≈ 88.3 µM) | > 32 | > 32 | 0.06 (≈ 0.166 µM) | 0.25 (≈ 0.69 µM) | > 5 | ~22 | 0.4 | 5 |  | MIC (K. pneumoniae A20468; A20468, overnight 37° C., table 6, read-out: MIC): 0.25 µg/mL (≈ 0.69 µM); MIC (P. mirabilis A-9900): 0.25 µg/mL (≈ 0.69 µM); MIC (P. rettgeri A22424): 0.5 µg/mL (≈ 1.38 µM); MIC (E. cloacae A-9656): 0.25 µg/mL (≈ 0.69 µM); MIC (P. aeruginosa A21213; A21213, overnight 37° C., table 6, read-out: MIC): 2 µg/mL (≈ 5.52 µM); MIC (E. cloacae A9659): 0.25 µg/mL (≈ 0.69 µM); MIC (M. morganii A15153): 0.25 µg/mL (≈ 0.69 µM); AUC [4]: 5500 ng·h/mL; Cmax [4]: 11400 ng/mL; half-life [4]: 0.173 h; dose excreted [4]: 49 ± 6%; half-life at 100 µM ([3]; pH 7.4, τ1/2 (half-life)): 16.9 h |
| C[C@@H](O)[C@H]1C(=O)N2C(C(=O)[O-])=C(SCC[n+]3ccc(CO)cc3)C[C@H]12 [Example 6, (5R, 6S)-3-[2-(4-hydroxymethylpyridinio)ethylthio]-6-[1-(R)-hydroxyethyl]-7-oxo-1-azabicyclo[3.2.0]hept-2-ene-2-carboxylate] | 0.03 (≈ 0.0823 µM) | 0.03 (≈ 0.0823 µM) |  | 0.03 (≈ 0.0823 µM) | 0.03 (≈ 0.0823 µM) | > 63 | 1 (≈ 2.74 µM) | 0.03 (≈ 0.0823 µM) | 0.03 (≈ 0.0823 µM) | 0.03 (≈ 0.0823 µM) | 4 (≈ 11 µM) | > 32 | > 32 | 0.06 (≈ 0.165 µM) |  | 0.6 | ~16 | ~3 | 0.9 | 14.5 | MIC (K. pneumoniae A20468; A20468): 0.5 µg/mL (≈ 1.37 µM); MIC (P. mirabilis A-9900): 0.06 µg/mL (≈ 0.165 µM); MIC (S. marcescens A20019): 0.06 µg/mL (≈ 0.165 µM); MIC (P. aeruginosa A21213; A21213): 0.5 µg/mL (≈ 1.37 µM); MIC (B. fragilis A22696): 0.5 µg/mL (≈ 1.37 µM); MIC (M. morganii A15153): 0.03 µg/mL (≈ 0.0823 µM); AUC [4]: 7700 ng·h/mL; Cmax [4]: 15200 ng/mL; half-life [4]: 0.167 h; dose excreted [4]: 38 ± 13% |
